Test results taken from patent EP0026746A1, “Combinatory compositions for use in a method for enhancing the activity of antibiotics, antibiotic preparations having enhanced activity and process for their production” (CIBA-GEIGY AG, priority 1979, dated 1981).

Assays:
Assay in all cases: Mouse protection test, i.p. infection, survival ED50
Type in all cases: in vivo
[1] = tested on: Klebsiella pneumoniae 329; conditions: Klebsiella pneumoniae, 329, sc, 96 h, mice, 2 x 10^4 cfu i.p., s.c. immediately and 3 h after infection, survivors after 4 days
Text: (§1) Die hohe antibiotische Wirkung des neuen Verfahrens und der neuen Präparate kann durch "in vivo"-Versuche nachgewiesen werden, die an verschiedenen Tierarten, insbesondere an Säugetieren, wie Mäusen, durchgeführt werden. Dazu infiziert man sie mit einer letalen oder sub-letalen Dosis eines pathogenen Microorganismus und gibt dann das genannte neue Präparat bzw. die einzelnen Dosen an Muramylpeptid und Antibiotikum. Die Wirkung wird als ED bestimmt, das ist diejenige Dosis bei denen […] der Tiere überleben.
(§2) Beispiel 4: Man infiziert weisse Laboratoriums-Mäuse auf i.p. Wege mit den in der nachfolgenden Tabelle angeführten pathogenen Mikroorganismen in Salzlösung, so dass 90-100% der nicht behandelten Kontrolltiere innerhalb von 48 Stunden getötet werden. Unmittelbar, sowie 3 Stunden nach der Infektion werden Gruppen zu je 10 Mäusen mit Cefroxadin, sowohl allein (ohne MDP oder nMDP) als auch in Kombination mit N-Acetyl-muramyl-L-alanyl-D-isoglutamin (MDP) bzw. mit N-Acetyldesmethylmuramyl-L-alanyl-D-isoglutamin (nMDP) behandelt, wobei dieselben zweimal in Form wässriger Lösungen oder Suspensionen auf subkutanem Weg verabreicht wurden. Nach 4 bzw. […] Die meisten dieser Versuche wurden zweifach ausgeführt und die Mittelwerte ermittelt.

[2] = tested on: Klebsiella pneumoniae 327; conditions: Klebsiella pneumoniae, 327, sc, mice, 60 x 10^4 cfu i.p., s.c. immediately and 3 h after infection, survivors
Text: as §1, §2

[3] = tested on: Streptococcus pyogenes 38; conditions: Streptococcus pyogenes, 38, sc, 96 h, mice, 0.6 x 10^4 cfu i.p., s.c. immediately and 3 h after infection, survivors after 4 days
Text: as §1, §2

[4] = tested on: Staphylococcus aureus 2999; conditions: Staphylococcus aureus, 2999, sc, 96 h, mice, 20 000 x 10^4 cfu i.p., s.c. immediately and 3 h after infection, survivors after 4 days
Text: as §1, §2

Pasteurella multocida = conditions: sc, mice, 0.1 x 10^4 cfu i.p., s.c. immediately and 3 h after infection, survivors
Text: as §1, §2

[5] = tested on: Salmonella typhimurium 273; conditions: Salmonella enterica, sc, 240 h, mice, 400 x 10^4 cfu i.p., s.c. immediately and 3 h after infection, results after 10 days
Text: as §1
(§3) Beispiel 4: Man infiziert weisse Laboratoriums-Mäuse auf i.p. Wege mit den in der nachfolgenden Tabelle angeführten pathogenen Mikroorganismen in Salzlösung, so dass 90-100% der nicht behandelten Kontrolltiere innerhalb von 48 Stunden getötet werden. Unmittelbar, sowie 3 Stunden nach der Infektion werden Gruppen zu je 10 Mäusen mit Cefroxadin, sowohl allein (ohne MDP oder nMDP) als auch in Kombination mit N-Acetyl-muramyl-L-alanyl-D-isoglutamin (MDP) bzw. mit N-Acetyldesmethylmuramyl-L-alanyl-D-isoglutamin (nMDP) behandelt, wobei dieselben zweimal in Form wässriger Lösungen oder Suspensionen auf subkutanem Weg verabreicht wurden. Nach 4 bzw. 10 Tagen nach erfolgter Infektion wurden die überlebenden Tiere gezählt. Die meisten dieser Versuche wurden zweifach ausgeführt und die Mittelwerte ermittelt.

[6] = tested on: Salmonella typhimurium 277; conditions: Salmonella enterica, sc, 240 h, mice, 40 x 10^4 cfu i.p., s.c. immediately and 3 h after infection, results after 10 days
Text: as §1, §3

COC1=C(C(=O)O)N2C(=O)[C@@H](NC(=O)[C@H](N)C3=CCC=CC3)[C@H]2SC1 [Cefroxadin, 7ß-[D-2-amino-2-(1,4-cyclohexadienyl)-acetamido]-3-methoxy-3-cephem-4-carbonsäure]
ED50 ([1]; mit 10 mg/kg MDP): 4.5 mg/kg
ED50 ([1]; mit 10 mg/kg nMDP): < 2.5 mg/kg
ED50 ([1]; ohne MDP oder nMDP): 14.2 mg/kg
ED50 ([2]; mit 10 mg/kg MDP): < 50 mg/kg
ED50 ([2]; mit 10 mg/kg nMDP): < 50 mg/kg
ED50 ([2]; ohne MDP oder nMDP): 75 mg/kg
ED50 ([3]; mit 10 mg/kg MDP): 0.18 mg/kg
ED50 ([3]; mit 10 mg/kg nMDP): 0.17 mg/kg
ED50 ([3]; ohne MDP oder nMDP): 0.21 mg/kg
ED50 ([4]; mit 10 mg/kg MDP): 45 mg/kg
ED50 ([4]; mit 10 mg/kg nMDP): 35 mg/kg
ED50 ([4]; ohne MDP oder nMDP): 58 mg/kg
ED50 (Pasteurella multocida; mit 10 mg/kg MDP): 37 mg/kg
ED50 (Pasteurella multocida; mit 10 mg/kg nMDP): 70 mg/kg
ED50 (Pasteurella multocida; ohne MDP oder nMDP): 109 mg/kg
ED50 ([5]; mit 10 mg/kg MDP): 22.5 mg/kg
ED50 ([5]; mit 10 mg/kg nMDP): 14 mg/kg
ED50 ([5]; ohne MDP oder nMDP): 39 mg/kg
ED50 ([6]; mit 10 mg/kg MDP): 7.6 mg/kg
ED50 ([6]; mit 10 mg/kg nMDP): 11 mg/kg
ED50 ([6]; ohne MDP oder nMDP): 22.5 mg/kg
